Laboratory results as given in the NIST ThermoML archive (doi:10.1021/je600573w).

Legend:
[1] = 101.33 kPa, Liquid, Vibrating tube method
[2] = molar heat capacity at constant pressure; conditions: 101.33 kPa, Liquid, Small sample (50 mg) DSC

Clc1cccc(Br)c1 [1-bromo-3-chlorobenzene]
Conditions	mass density [kg/m3]	molar heat capacity at constant pressure [J/K/mol]
[1], 288.15 K	1638.44	–
[1], 298.15 K	1624.97	–
[1], 308.15 K	1611.51	–
[1], 318.15 K	1598.05	–
[1], 328.15 K	1584.56	–
[1], 338.15 K	1571.05	–
[2], 283.15 K	–	171.14
[2], 285.15 K	–	171.49
[2], 287.15 K	–	171.84
[2], 289.15 K	–	172.21
[2], 291.15 K	–	172.59
[2], 293.15 K	–	172.97
[2], 295.15 K	–	173.36
[2], 297.15 K	–	173.75
[2], 299.15 K	–	174.15
[2], 301.15 K	–	174.56
[2], 303.15 K	–	174.98
[2], 305.15 K	–	175.4
[2], 307.15 K	–	175.82
[2], 309.15 K	–	176.25
[2], 311.15 K	–	176.68
[2], 313.15 K	–	177.12
[2], 315.15 K	–	177.56
[2], 317.15 K	–	178
[2], 319.15 K	–	178.44
[2], 321.15 K	–	178.89
[2], 323.15 K	–	179.33
[2], 325.15 K	–	179.78
[2], 327.15 K	–	180.23
[2], 329.15 K	–	180.68
[2], 331.15 K	–	181.13
[2], 333.15 K	–	181.58
[2], 335.15 K	–	182.03
[2], 337.15 K	–	182.47
[2], 339.15 K	–	182.92
[2], 341.15 K	–	183.36
[2], 343.15 K	–	183.8
[2], 345.15 K	–	184.24
[2], 347.15 K	–	184.67
[2], 349.15 K	–	185.1
[2], 351.15 K	–	185.52
[2], 353.15 K	–	185.94

Clc1cccc(Cl)c1 [1,3-dichlorobenzene]
Conditions	mass density [kg/m3]	molar heat capacity at constant pressure [J/K/mol]
[1], 288.15 K	1294.08	–
[1], 298.15 K	1282.79	–
[1], 308.15 K	1271.49	–
[1], 318.15 K	1260.17	–
[1], 328.15 K	1248.82	–
[1], 338.15 K	1237.42	–
[2], 283.15 K	–	167.15
[2], 285.15 K	–	167.54
[2], 287.15 K	–	167.93
[2], 289.15 K	–	168.32
[2], 291.15 K	–	168.72
[2], 293.15 K	–	169.13
[2], 295.15 K	–	169.55
[2], 297.15 K	–	169.97
[2], 299.15 K	–	170.39
[2], 301.15 K	–	170.82
[2], 303.15 K	–	171.25
[2], 305.15 K	–	171.69
[2], 307.15 K	–	172.14
[2], 309.15 K	–	172.58
[2], 311.15 K	–	173.04
[2], 313.15 K	–	173.49
[2], 315.15 K	–	173.95
[2], 317.15 K	–	174.41
[2], 319.15 K	–	174.88
[2], 321.15 K	–	175.35
[2], 323.15 K	–	175.83
[2], 325.15 K	–	176.3
[2], 327.15 K	–	176.78
[2], 329.15 K	–	177.26
[2], 331.15 K	–	177.75
[2], 333.15 K	–	178.24
[2], 335.15 K	–	178.73
[2], 337.15 K	–	179.22
[2], 339.15 K	–	179.71
[2], 341.15 K	–	180.2
[2], 343.15 K	–	180.7
[2], 345.15 K	–	181.2
[2], 347.15 K	–	181.7
[2], 349.15 K	–	182.2
[2], 351.15 K	–	182.7
[2], 353.15 K	–	183.2

Clc1ccccc1 [chlorobenzene]
Conditions	mass density [kg/m3]	molar heat capacity at constant pressure [J/K/mol]
[1], 288.15 K	1111.9	–
[1], 298.15 K	1101.14	–
[1], 308.15 K	1090.34	–
[1], 318.15 K	1079.48	–
[1], 328.15 K	1068.57	–
[1], 338.15 K	1057.58	–
[2], 283.15 K	–	147.73
[2], 285.15 K	–	148.14
[2], 287.15 K	–	148.56
[2], 289.15 K	–	148.99
[2], 291.15 K	–	149.41
[2], 293.15 K	–	149.85
[2], 295.15 K	–	150.29
[2], 297.15 K	–	150.73
[2], 299.15 K	–	151.18
[2], 301.15 K	–	151.64
[2], 303.15 K	–	152.1
[2], 305.15 K	–	152.56
[2], 307.15 K	–	153.03
[2], 309.15 K	–	153.5
[2], 311.15 K	–	153.97
[2], 313.15 K	–	154.45
[2], 315.15 K	–	154.93
[2], 317.15 K	–	155.41
[2], 319.15 K	–	155.9
[2], 321.15 K	–	156.39
[2], 323.15 K	–	156.88
[2], 325.15 K	–	157.37
[2], 327.15 K	–	157.86
[2], 329.15 K	–	158.36
[2], 331.15 K	–	158.86
[2], 333.15 K	–	159.35
[2], 335.15 K	–	159.85
[2], 337.15 K	–	160.35
[2], 339.15 K	–	160.85
[2], 341.15 K	–	161.35
[2], 343.15 K	–	161.85
[2], 345.15 K	–	162.35
[2], 347.15 K	–	162.85
[2], 349.15 K	–	163.34
[2], 351.15 K	–	163.84
[2], 353.15 K	–	164.34

Brc1ccccc1 [bromobenzene]
Conditions	mass density [kg/m3]	molar heat capacity at constant pressure [J/K/mol]
[1], 288.15 K	1501.95	–
[1], 298.15 K	1488.45	–
[1], 308.15 K	1474.94	–
[1], 318.15 K	1461.39	–
[1], 328.15 K	1447.8	–
[1], 338.15 K	1434.15	–
[2], 283.15 K	–	151.63
[2], 285.15 K	–	151.99
[2], 287.15 K	–	152.37
[2], 289.15 K	–	152.75
[2], 291.15 K	–	153.14
[2], 293.15 K	–	153.54
[2], 295.15 K	–	153.94
[2], 297.15 K	–	154.35
[2], 299.15 K	–	154.77
[2], 301.15 K	–	155.19
[2], 303.15 K	–	155.62
[2], 305.15 K	–	156.05
[2], 307.15 K	–	156.49
[2], 309.15 K	–	156.93
[2], 311.15 K	–	157.38
[2], 313.15 K	–	157.83
[2], 315.15 K	–	158.28
[2], 317.15 K	–	158.74
[2], 319.15 K	–	159.2
[2], 321.15 K	–	159.66
[2], 323.15 K	–	160.13
[2], 325.15 K	–	160.6
[2], 327.15 K	–	161.06
[2], 329.15 K	–	161.53
[2], 331.15 K	–	162
[2], 333.15 K	–	162.48
[2], 335.15 K	–	162.95
[2], 337.15 K	–	163.42
[2], 339.15 K	–	163.89
[2], 341.15 K	–	164.36
[2], 343.15 K	–	164.83
[2], 345.15 K	–	165.3
[2], 347.15 K	–	165.76
[2], 349.15 K	–	166.23
[2], 351.15 K	–	166.69
[2], 353.15 K	–	167.15

Clc1cccc(Cl)c1Cl [1,2,3-trichlorobenzene]
[2]
Conditions	molar heat capacity at constant pressure [J/K/mol]
327.15 K	201.44
329.15 K	201.8
331.15 K	202.16
333.15 K	202.52
335.15 K	202.88
337.15 K	203.25
339.15 K	203.62
341.15 K	204
343.15 K	204.38
345.15 K	204.75
347.15 K	205.14
349.15 K	205.52
351.15 K	205.91
353.15 K	206.3
